# Assay results published in patent US20120288883A1, “PROBE REAGENT FOR MEASUREMENT OF PROTEOLYTIC ACTIVITY” (RIKEN, priority 2010, published 2012).
# Test system: ubiquitin-proteasome system
# Experiment: Screening for degradation-terminating peptide: FRET fluorescence imaging of probe reagents expressed in HeLa cells
# Type: cell-based
# Conditions: CyPet/YPet probe with Geminin (1/110) degron
# Excerpt: In order to develop a probe reagent of interest, p105 was screened for a peptide sequence capable of terminating degradation. CyPet as a fluorescent protein I, YPet as a fluorescent protein II, and Geminin as a degron protein were used to prepare an experimental probe reagent (FIG. 2). The fluorescent protein CyPet is derived from CFP and has an excitation wavelength peak of 435 nm and a fluorescence wavelength peak of 477 nm. The fluorescent protein YPet is derived from YFP and has an excitation wavelength peak of 517 nm and a fluorescence wavelength peak of 530 nm. This pair is known to efficiently cause FRET with CyPet as a donor and YPet as an acceptor. The protein Geminin is a factor controlling the progression of cell cycle and has the function of inhibiting the licensing of DNA replication (Cell 1998; 93 (11): 1043-1053; and Am. J. Pathol. 2002; 161 (1): 267-273). Its abundance is strictly controlled during cell cycle so that its expression level increases in the S/G2/M phases and this protein disappears due to the promoted degradation by the ubiquitin-proteasome system in the G1 phase. A region of N-terminal amino acids 1-110 (Geminin (1/110)) containing a moiety necessary for the degradation of the Geminin molecule was selected from the structure of Geminin (e.g., NM_015895 (human, SEQ ID NOs: 18 and 19), NM_020567 (mouse)) and used in this experiment.
# The respective cDNAs of these molecules were amplified by PCR and ligated by insertion to each restriction enzyme site in the multicloning site of a cloning vector pBluescript II SK(+) (Stratagene) to prepare gene DNA of the probe reagent. A region of amino acids 366-440 in human-derived p105 (SEQ ID NOs: 16 and 17) was screened for a peptide sequence for terminating degradation. This region contains GRR and processing point.
# The prepared gene DNA of the probe reagent was then excised from the pBlueScript vector with restriction enzymes, and this fragment was inserted into the multicloning site of an expression vector CSII-EF-MCS to prepare a vector for expression in cultured cells.
# HeLa cells were cultured in a Dulbecco's modified Eagle's medium containing 10% fetal bovine serum in a 35 mmφ glass-bottomed dish. The prepared vector plasmid was mixed with a transfection reagent FuGENE (Roche Applied Science) and added to the medium. The HeLa cells were cultured in a CO2 incubator for 2 days so that the cells expressed the probe reagent and experienced cell cycle.
# This is because the intramolecular nuclear localization signal of the Geminin protein, which functions in the nucleus, allowed the probe reagent to be selectively incorporated into the nucleus. The amount of Geminin changes periodically depending on the promoted or suppressed degradation by the ubiquitin-proteasome system in accordance with cell cycle. If the degradation of the probe reagent accompanying the degradation of Geminin is terminated by the degradation-terminating peptide, CyPet accumulates in the cell during every cell cycle without being degraded and thus reduces an YPet/CyPet fluorescence intensity ratio serving as an index value for FRET at the time of CyPet excitation. After the degradation of Geminin, the probe reagent lacks the nuclear localization signal. As a result, the remaining CyPet molecule also becomes distributed in the cytoplasm. The cells were fluorescently imaged from these viewpoints and screened for a peptide capable of terminating degradation.
# An inverted microscope (IX70, Olympus Corp.) was used in cell observation. Fluorescence images were obtained using a 3-CCD cooled color camera (ORCA-3CCD, Hamamatsu Photonics K.K.). This camera can simultaneously capture images in three wavelength (red, green, and blue) regions and merge them to form observable color images. Also, it can individually measure the brightness of the image in each wavelength region. After excitation with a 440 nm band-pass filter, the fluorescence images of the cells were obtained through a 460 nm long-pass filter. […]
row,Substance,ability of the peptide to terminate degradation of the probe reagent
1,"GRR: glycine-rich region, amino acids 376-404 of human p105, tested alone as degradation-terminating peptide",failed to terminate the degradation
2,p105 (376/409): probe reagent containing human p105 amino acids 376-409 (SEQ ID NO: 11) (GGGSGAGAGGGGMFGSGGGGGGTGSTGPGYSFPH; listed as Homo sapiens),capable of efficiently terminating protein degradation
3,p105 (376/420): probe reagent containing human p105 amino acids 376-420 (SEQ ID NO: 9) (GGGSGAGAGGGGMFGSGGGGGGTGSTGPGYSFPHYGFPTYGGITF; listed as Homo sapiens),capable of efficiently terminating protein degradation
4,p105 (376/434): probe reagent containing human p105 amino acids 376-434 (SEQ ID NO: 7) (GGGSGAGAGGGGMFGSGGGGGGTGSTGPGYSFPHYGFPTYGGITFHPGTTKSNAGMKHG; listed as Homo sapiens),capable of efficiently terminating protein degradation
5,p105 (382/440): probe reagent containing human p105 amino acids 382-440 (SEQ ID NO: 3) (GAGGGGMFGSGGGGGGTGSTGPGYSFPHYGFPTYGGITFHPGTTKSNAGMKHGTMDTES; listed as Homo sapiens),capable of efficiently terminating protein degradation
6,p105 (392/440): probe reagent containing human p105 amino acids 392-440 (SEQ ID NO: 5) (GGGGGGTGSTGPGYSFPHYGFPTYGGITFHPGTTKSNAGMKHGTMDTES; listed as Homo sapiens),capable of efficiently terminating protein degradation
